The text below walks through data of patent publication US7332521B2, “Substituted indoles” (Wyeth, priority 2003, dated 2008).

Assay [1] deals with T1, recombinant human plasminogen activator inhibitor-1 (PAI-1) (Homo sapiens, UniProt P05121).
T1 construct: purchased Molecular Innovations, Royal Oak, Mich
Nature of the assay: Primary screen for the PAI-1 inhibition (chromogenic tPA activity). To be noted: pH 6.6 buffer; for inhibition at 10 µM: 10 μM test compound; for inhibition at 25 µM: 25 μM test compound. It counts as biochemical. The protocol:
Test compounds are dissolved in DMSO at a final concentration of 10 mM, then diluted 100× in physiologic buffer. The inhibitory assay is initiated by the addition of the test compound (1-100 μM final concentration, maximum DMSO concentration of 0.2%) in a pH 6.6 buffer containing 140 nM recombinant human plasminogen activator inhibitor-1 (PAI-1; Molecular Innovations, Royal Oak, Mich.). Following a 1 hour incubation at room temperature, 70 nM of recombinant human tissue plasminogen activator (tPA) is added, and the combination of the test compound, PAI-1 and tPA is incubated for an additional 30 minutes. Following the second incubation, Spectrozyme-tPA (American Diagnostica, Greenwich, Conn.), a chromogenic substrate for tPA, is added and absorbance read at 405 nm at 0 and 60 minutes. Relative PAI-1 inhibition is equal to the residual tPA activity in the presence of the test compound and PAI-1. Control treatments include the complete inhibition of tPA by PAI-1 at the molar ratio employed (2:1), and the absence of any effect of the test compound on tPA alone.

Another assay addresses human PAI-1 (Homo sapiens, UniProt P05121). Nature of the assay: Assay for determining IC50 of inhibition of PAI-1 (active PAI-1 bound to tPA-coated plate). The format is binding. Conditions: pH 7.5 buffer. On the procedure: This assay is based upon the non-SDS dissociable interaction between tPA and active PAI-1. Assay plates are initially coated with human tPA (10 μg/ml). Test compounds of the present invention are dissolved in DMSO at 10 mM, then diluted with physiologic buffer (pH 7.5) to a final concentration of 1-50 μM. Test compounds are incubated with human PAI-1 (50 ng/ml) for 15 minutes at room temperature. The tPA-coated plate is washed with a solution of 0.05% Tween 20 and 0.1% BSA, then the plate is blocked with a solution of 3% BSA. An aliquot of the subtituted indole/PAI-1 solution is then added to the tPA-coated plate, incubated at room temperature for 1 hour, and washed. Active PAI-1 bound to the plate is assessed by adding an aliquot of a 1:1000 dilution of the 33B8 monoclonal antibody against human PAI-1, and incubating the plate at room temperature for 1 hour (Molecular Innovations, Royal Oak, Mich.). […] The plate is incubated 45 minutes at room temperature, and color development is determined at OD405nm. The quantitation of active PAI-1 bound to tPA at varying concentrations of the test compound is used to determine the IC50. Results are analyzed using a logarithmic best-fit equation. The assay sensitivity is 5 ng/ml of human PAI-1 as determined from a standard curve ranging from 0-100 ng/ml.

Each structure is given as a SMILES string. pIC50: −log10 of the molar value.

T1 sequence (P05121 24-402): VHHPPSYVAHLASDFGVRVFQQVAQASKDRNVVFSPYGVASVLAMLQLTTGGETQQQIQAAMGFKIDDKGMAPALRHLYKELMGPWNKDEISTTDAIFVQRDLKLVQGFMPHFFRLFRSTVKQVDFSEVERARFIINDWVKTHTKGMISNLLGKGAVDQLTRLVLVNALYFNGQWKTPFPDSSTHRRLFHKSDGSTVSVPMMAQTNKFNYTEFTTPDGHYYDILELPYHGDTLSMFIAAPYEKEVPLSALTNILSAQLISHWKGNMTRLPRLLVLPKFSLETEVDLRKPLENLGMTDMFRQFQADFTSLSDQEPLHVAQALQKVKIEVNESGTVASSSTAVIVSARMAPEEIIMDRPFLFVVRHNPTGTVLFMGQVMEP
Sequence of human PAI-1 (P05121 24-402): as above

On to `O=C(O)c1c(-c2ccccc2)c2cc(Nc3cccc4c3sc3ccccc34)ccc2n1Cc1ccccc1` [Compound 4, 1-benzyl-5-(dibenzo[b,d]thien-4-ylamino)-3-phenyl-1H-indole-2-carboxylic acid], for which, in assay [1], the inhibition (as a rule, the relative decrease from the control value, in per cent) at 10 µM is 39% and the inhibition at 25 µM is 66%.
Taken in the same sequence, the figures for `Cc1cccc(Nc2ccc3c(c2)c(-c2ccccc2)c(C(=O)O)n3Cc2ccccc2)c1` [Compound 1, 1-benzyl-5-[(3-methylphenyl)amino]-3-phenyl-1H-indole-2-carboxylic acid] were 24% and 69%.
In the case of `CC(C)(C)c1ccc(Nc2ccc3c(c2)c(-c2ccccc2)c(C(=O)O)n3Cc2ccc(-c3ccccc3)cc2)cc1` [Compound 5, 1-(1,1′-biphenyl-4-ylmethyl)-5-[(4-tert-butylphenyl)amino]-3-phenyl-1H-indole-2-carboxylic acid], in assay [1], the inhibition at 10 µM is 52% and the inhibition at 25 µM amounted to 80%. For the same compound, at human PAI-1, the negative-log IC50 (pIC50) – broadly, the negative decadic logarithm of the IC50, by convention in mol/L – was 4.92.
For `CC(C)(C)c1ccc(Nc2ccc3c(c2)c(-c2ccccc2)c(C(=O)O)n3Cc2ccccc2)cc1` [Compound 2, 1-benzyl-5-[(4-tert-butylphenyl)amino]-3-phenyl-1H-indole-2-carboxylic acid], in assay [1], the inhibition at 10 µM came to 45% and the inhibition at 25 µM was 73%.
For `O=C(O)c1c(-c2ccccc2)c2cc(Nc3ccc(-c4ccccc4)cc3)ccc2n1Cc1ccccc1` [Compound 3, 1-benzyl-5-(1,1′-biphenyl-4-ylamino)-3-phenyl-1H-indole-2-carboxylic acid] the same measures were 36% and 71%.
